Assay: skeletal imaging with scintillation camera
Assay type: in vivo, adult human subject
Method: An imaging agent is prepared using this kit by adding about 5 ml of a pertechnetate-Tc99m physiological saline with an activity of about 75 mCi, from a commercial technetium source. The kit is agitated until the kit components are dissolved. About 1 ml of the agent is slowly injected, over a period of about 30 seconds, into an adult human subject weighing about 75 kg.

[1] = component substituted in the kit of Example 1 or Example II, compared with the original kit

Compound | results when substituted in the kit [1] | results when substituted in the kit (in vivo)
O=C1O[C@H]([C@@H](O)CCl)C(O)=C1O [6-chloro-6-deoxyascorbic acid] | substantially similar results | 
O=C1CCC(O)=C1O [reductic acid] | substantially similar results | 
NCC(O)(P(=O)(O)O)P(=O)(O)O [ethane-1-hydroxy-2-amino-1,1-diphosphonic acid, reference compound] | substantially similar results | 
O=C1O[C@H]([C@@H](O)CO)C([O-])=C1O.[Na+] [sodium ascorbate] | substantially similar results | 
O=C1O[C@H]([C@@H](O)CCl)C([O-])=C1O.[Na+] [sodium-6-chloro-6-deoxyascorbate] | substantially similar results | 
O=S(=O)([O-])[O-].[Sn+2] [stannous sulfate] | substantially similar results | 
CC(O)(P(=O)(O)O)P(=O)(O)O [EHDP, ethane-1-hydroxy-1,1-diphosphonic acid, reference compound] | substantially similar results | 
O=C1O[C@H]([C@@H](O)CBr)C(O)=C1O [6-bromo-6-deoxyascorbic acid] | substantially similar results | 
O=P(O)(O)C(O)P(=O)(O)O [HMDP, methanehydroxydiphosphonic acid, reference compound] | substantially similar results | 
O=C1O[C@H]([C@H](O)CO)C(O)=C1O [erythorbic acid] | substantially similar results | 
O=C1O[C@H]([C@@H](O)CBr)C([O-])=C1O.[Na+] [sodium-6-bromo-6-deoxyascorbate] | substantially similar results | 
CC1CC(O)=C(O)C1=O (stereo not drawn) [5-methyl reductic acid] | substantially similar results | 
O=C([O-])[C@H](O)[C@@H](O)C(=O)[O-].[Sn+2] [stannous tartrate] | substantially similar results | 
NC(P(=O)(O)O)P(=O)(O)O [methaneaminodiphosphonic acid, reference compound] | substantially similar results | 
CNC(P(=O)(O)O)P(=O)(O)O [methane-N-methylaminodiphosphonic acid, reference compound] | substantially similar results | 
stannous fluoride |  | substantially similar results
O=P(O)(O)CP(=O)(O)O [MDP, methanediphosphonic acid, reference compound] | substantially similar results | 
CN(C)C(P(=O)(O)O)P(=O)(O)O [methane-N,N-dimethylaminodiphosphonic acid, reference compound] | substantially similar results | 
